System: 519858-162-T-J1-PDC complex spheroid viability
Test: Anticancer human tumor 519858-162-T-J1-PDC patient-derived colon adenocarcinoma cell line growth inhibition [GQUAD]
Conditions: for IC50: curve of first compound; for viability, T/C: stronger effect = lower value
In short: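 Tumor cells were grown as complex spheroids with HUVEC endothelial cells and mesenchymal stem cells as stroma. G-quadruplex stabilizers were combined with targeted agents over half-log dilutions from near the clinical Cmax, or from 10 microM.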

[1] = second compound 0.0316 µM, first compound 0.0316 µM
[2] = second compound 0.0316 µM, first compound 0.1 µM
[3] = second compound 0.0316 µM, first compound 0.316 µM
[4] = second compound 0.0316 µM, first compound 1 µM
[5] = second compound 0.0316 µM, first compound 3.16 µM
[6] = second compound 0.0316 µM, first compound 10 µM
[7] = second compound 0.1 µM, first compound 0.0316 µM
[8] = second compound 0.1 µM, first compound 0.1 µM
[9] = second compound 0.1 µM, first compound 0.316 µM
[10] = second compound 0.1 µM, first compound 1 µM
[11] = second compound 0.1 µM, first compound 3.16 µM
[12] = second compound 0.1 µM, first compound 10 µM
[13] = second compound 0.316 µM, first compound 0.0316 µM
[14] = second compound 0.316 µM, first compound 0.1 µM
[15] = second compound 0.316 µM, first compound 0.316 µM
[16] = second compound 0.316 µM, first compound 1 µM
[17] = second compound 0.316 µM, first compound 3.16 µM
[18] = second compound 0.316 µM, first compound 10 µM
[19] = second compound 1 µM, first compound 0.0316 µM
[20] = second compound 1 µM, first compound 0.1 µM
[21] = second compound 1 µM, first compound 0.316 µM
[22] = second compound 1 µM, first compound 1 µM
[23] = second compound 1 µM, first compound 3.16 µM
[24] = second compound 1 µM, first compound 10 µM
[25] = second compound 3.16 µM, first compound 0.0316 µM
[26] = second compound 3.16 µM, first compound 0.1 µM
[27] = second compound 3.16 µM, first compound 0.316 µM
[28] = second compound 3.16 µM, first compound 1 µM
[29] = second compound 3.16 µM, first compound 3.16 µM
[30] = second compound 3.16 µM, first compound 10 µM
[31] = second compound 10 µM, first compound 0.0316 µM
[32] = second compound 10 µM, first compound 0.1 µM
[33] = second compound 10 µM, first compound 0.316 µM
[34] = second compound 10 µM, first compound 1 µM
[35] = second compound 10 µM, first compound 3.16 µM
[36] = second compound 10 µM, first compound 10 µM
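Also: spheroids exposed to compounds for 7 days.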
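For viability, T/C in this document: 100% = DMSO vehicle control viability.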

## Cc1cccc(N(C)C(=O)C2C(O)CCN2c2nc(C)cc(C(F)(F)F)c2C#N)c1 (stereo unspecified) + Cc1cnc(CNC(=O)c2c(=O)c3ccc(N4CCCN(C)CC4)nc3n3c2sc2ccccc23)cn1
Second compound 0.0316 µM
  IC50: > 10000 nM
Second compound 0.1 µM
  IC50: > 10000 nM
Second compound 0.316 µM
  IC50: > 10000 nM
Second compound 1 µM
  IC50: 1980 nM
Second compound 3.16 µM
  IC50: 34.2 nM
Second compound 10 µM
  IC50: 76.2 nM
[1]
  viability, T/C: 87.7%
[2]
  viability, T/C: 70.2%
[3]
  viability, T/C: 62.9%
[4]
  viability, T/C: 75.9%
[5]
  viability, T/C: 70.7%
[6]
  viability, T/C: 81.6%
[7]
  viability, T/C: 67.2%
[8]
  viability, T/C: 72.2%
[9]
  viability, T/C: 76%
[10]
  viability, T/C: 62%
[11]
  viability, T/C: 50%
[12]
  viability, T/C: 78.8%
[13]
  viability, T/C: 82.5%
[14]
  viability, T/C: 79.8%
[15]
  viability, T/C: 59.8%
[16]
  viability, T/C: 52.8%
[17]
  viability, T/C: 65.5%
[18]
  viability, T/C: 49.3%
[19]
  viability, T/C: 71.6%
[20]
  viability, T/C: 62.1%
[21]
  viability, T/C: 52.4%
[22]
  viability, T/C: 56.1%
[23]
  viability, T/C: 50.5%
[24]
  viability, T/C: 44.2%
[25]
  viability, T/C: 48.9%
[26]
  viability, T/C: 50%
[27]
  viability, T/C: 45.5%
[28]
  viability, T/C: 36.2%
[29]
  viability, T/C: 46.1%
[30]
  viability, T/C: 40.9%
[31]
  viability, T/C: 50.6%
[32]
  viability, T/C: 54.8%
[33]
  viability, T/C: 44.4%
[34]
  viability, T/C: 41.2%
[35]
  viability, T/C: 43.2%
[36]
  viability, T/C: 43.4%

## Cn1ncnc1[C@H]1c2n[nH]c(=O)c3cc(F)cc(c23)N[C@@H]1c1ccc(F)cc1 + Cc1cnc(CNC(=O)c2c(=O)c3ccc(N4CCCN(C)CC4)nc3n3c2sc2ccccc23)cn1
Second compound 0.0316 µM
  IC50: > 316 nM
Second compound 0.1 µM
  IC50: > 316 nM
Second compound 0.316 µM
  IC50: > 316 nM
Second compound 1 µM
  IC50: > 316 nM
Second compound 3.16 µM
  IC50: < 0.999 nM
Second compound 10 µM
  IC50: < 0.999 nM
Second compound 0.0316 µM, first compound 0.000999 µM
  viability, T/C: 96.5%
Second compound 0.0316 µM, first compound 0.00316 µM
  viability, T/C: 116%
Second compound 0.0316 µM, first compound 0.00999 µM
  viability, T/C: 101%
[1]
  viability, T/C: 72.1%
Second compound 0.0316 µM, first compound 0.0999 µM
  viability, T/C: 70.2%
[3]
  viability, T/C: 57.8%
Second compound 0.1 µM, first compound 0.000999 µM
  viability, T/C: 60.1%
Second compound 0.1 µM, first compound 0.00316 µM
  viability, T/C: 92.9%
Second compound 0.1 µM, first compound 0.00999 µM
  viability, T/C: 79.5%
[7]
  viability, T/C: 79.5%
Second compound 0.1 µM, first compound 0.0999 µM
  viability, T/C: 56.8%
[9]
  viability, T/C: 65.2%
Second compound 0.316 µM, first compound 0.000999 µM
  viability, T/C: 85.3%
Second compound 0.316 µM, first compound 0.00316 µM
  viability, T/C: 81.8%
Second compound 0.316 µM, first compound 0.00999 µM
  viability, T/C: 65.9%
[13]
  viability, T/C: 72%
Second compound 0.316 µM, first compound 0.0999 µM
  viability, T/C: 61.5%
[15]
  viability, T/C: 58.9%
Second compound 1 µM, first compound 0.000999 µM
  viability, T/C: 85.2%
Second compound 1 µM, first compound 0.00316 µM
  viability, T/C: 72.3%
Second compound 1 µM, first compound 0.00999 µM
  viability, T/C: 60.9%
[19]
  viability, T/C: 73.3%
Second compound 1 µM, first compound 0.0999 µM
  viability, T/C: 69.9%
[21]
  viability, T/C: 72.7%
Second compound 3.16 µM, first compound 0.000999 µM
  viability, T/C: 47.3%
Second compound 3.16 µM, first compound 0.00316 µM
  viability, T/C: 48.7%
Second compound 3.16 µM, first compound 0.00999 µM
  viability, T/C: 50.3%
[25]
  viability, T/C: 38.7%
Second compound 3.16 µM, first compound 0.0999 µM
  viability, T/C: 43.1%
[27]
  viability, T/C: 52.3%
Second compound 10 µM, first compound 0.000999 µM
  viability, T/C: 26.9%
Second compound 10 µM, first compound 0.00316 µM
  viability, T/C: 54%
Second compound 10 µM, first compound 0.00999 µM
  viability, T/C: 44.4%
[31]
  viability, T/C: 50.4%
Second compound 10 µM, first compound 0.0999 µM
  viability, T/C: 49.1%
[33]
  viability, T/C: 72%

## O=C(c1cc(Cc2n[nH]c(=O)c3ccccc23)ccc1F)N1CCN(C(=O)C2CC2)CC1 + Cc1cnc(CNC(=O)c2c(=O)c3ccc(N4CCCN(C)CC4)nc3n3c2sc2ccccc23)cn1
Second compound 0.0316 µM
  IC50: > 10000 nM
Second compound 0.1 µM
  IC50: > 10000 nM
Second compound 0.316 µM
  IC50: > 10000 nM
Second compound 1 µM
  IC50: > 10000 nM
Second compound 3.16 µM
  IC50: < 31.6 nM
Second compound 10 µM
  IC50: < 31.6 nM
[1]
  viability, T/C: 92.2%
[2]
  viability, T/C: 89.5%
[3]
  viability, T/C: 89.7%
[4]
  viability, T/C: 81.5%
[5]
  viability, T/C: 64.2%
[6]
  viability, T/C: 74.7%
[7]
  viability, T/C: 52.6%
[8]
  viability, T/C: 65.7%
[9]
  viability, T/C: 65.3%
[10]
  viability, T/C: 58.8%
[11]
  viability, T/C: 48.3%
[12]
  viability, T/C: 74.5%
[13]
  viability, T/C: 82.6%
[14]
  viability, T/C: 72.4%
[15]
  viability, T/C: 50.3%
[16]
  viability, T/C: 47.6%
[17]
  viability, T/C: 52.9%
[18]
  viability, T/C: 60.6%
[19]
  viability, T/C: 68.6%
[20]
  viability, T/C: 67.5%
[21]
  viability, T/C: 48.3%
[22]
  viability, T/C: 64.4%
[23]
  viability, T/C: 45.5%
[24]
  viability, T/C: 54.6%
[25]
  viability, T/C: 60%
[26]
  viability, T/C: 31.8%
[27]
  viability, T/C: 39.6%
[28]
  viability, T/C: 39.2%
[29]
  viability, T/C: 47.4%
[30]
  viability, T/C: 41.2%
[31]
  viability, T/C: 47.9%
[32]
  viability, T/C: 46.5%
[33]
  viability, T/C: 49.7%
[34]
  viability, T/C: 44.6%
[35]
  viability, T/C: 49%
[36]
  viability, T/C: 57.2%

Source: PubChem BioAssay AID2060507 (Molecular Pharmacology Branch, DTP, NCI, 2025)
